Here are results for 5 compounds from US8263615B2, “Bis-heterocyclic imidazolyl compounds” (Novartis AG, priority 2005, dated 2012).

The structures appear in SMILES notation.

For one test, the system named is plasma corticosterone. The experiment in a line: in vivo suppression of plasma corticosterone levels in ACTH-stimulated rats. Also on record: species or system Wistar rats. Conditions: rat plasma, 4 mg/kg p.o., 2 h after dosing vs 1 h before dosing. The procedure: (§1) The aldosterone- and corticosterone-suppressing activity of herein described compounds may be assessed with the following in vivo protocol.
(§2) Adult male Wistar rats weighing between 250 and 350 grams are kept under the usual 12 hour light and 12 hour dark conditions at a temperature of 23° C.±2° C. On the first day of the experiment, the animals receive a subcutaneous injection of a depot ACTH product in a dose of 1.0 mg/kg weight (SYNACTEN-Depot, Novartis, Basel, CH) 16 hours prior to the administration of a test compound. […] An alternative method to stimulate aldosterone secretion consists in subjecting rats to a low salt diet for 48 hours and applying the diuretic furosemide at 10 mg/kg by subcutaneous or intraperitoneal administration 16 hours, respectively 2 hours prior to the start of the experiment. On the second day of the experiment, the animals are divided into test groups of 5 animals and subjected to a first bleed 1 hour prior to the administration of test compound. Subsequently, and 16 hours after the injection of the ACTH product, the animals receive either vehicle or test compound dissolved in vehicle in a variable dose range from 0.02 to 20 mg/kg by oral gavage. The animals are bled two more times from the vena subclavia under isoflurane anesthesia 2 and 6 hours after dosing. The blood is collected in heparin-treated tubes. The plasma samples are obtained by centrifugation and stored at −20° C. An alternative method to bleed animals time-dependently consists in using animals that are chronically carotid catheterized which allows the periodical sampling of up to 0.2 ml of blood using an AccuSampler (DiLab Europe, Lund, Sweden). The blood sampling with the AccuSampler may occur 1 hour prior to the administration of a test compound and 2, 4, 6, 8, 12, 16 and 24 hours thereafter. The blood samples are anti-coagulated with heparin and centrifuged. The aldosterone and corticosterone concentrations of the plasma samples can be determined with a radioimmunoassay as described above for the in vitro test systems.
(§3) The selective suppression of plasma steroid levels as for instance aldosterone in comparison to corticosterone may serve as a measure for in vivo bioavailability and pharmacodynamic enzyme inhibitory activity of the herein described compounds. The evaluation of the data may occur relative to the application of vehicle or quantitatively by determination of the area under the curve (AUC).

For a further test, the system named is plasma aldosterone. The experiment in a line: in vivo suppression of plasma aldosterone levels in ACTH-stimulated rats. More on the design: species or system Wistar rats. Conditions: rat plasma, 4 mg/kg p.o., 2 h after dosing vs 1 h before dosing. As for the experimental part:
as §1, §2, §3

`Fc1ccc(C2CCn3cncc32)cc1F` (stereo not shown) [Example 2, 7-(3,4-Difluorophenyl)-6,7-dihydro-5H-pyrrolo[1,2-c]imidazole]: the “Corticosterone levels (% change at 2 h)” value in the test with plasma corticosterone is recorded as −32%. Also, the “Aldosterone levels (% change at 2 h)” value in the test on plasma aldosterone was −49%.
Consider `CC(=O)c1ccc(C2CCn3cncc32)cc1` (stereo not shown) [Example 3, 1-[4-(6,7-Dihydro-5H-pyrrolo[1,2-c]imidazol-7-yl)phenyl]ethanone], for which, in the test on plasma corticosterone, the “Corticosterone levels (% change at 2 h)” value is reported as −13%. Besides, the “Aldosterone levels (% change at 2 h)” value in the test on plasma aldosterone is −53%.
Turning to `CSc1ccc(C2CCCn3cncc32)cc1` (stereo not shown) [Example 12, 8-(4-Methylsulphanylphenyl)-5,6,7,8-tetrahydroimidazo[1,5-a]pyridine], the “Corticosterone levels (% change at 2 h)” value in the test with plasma corticosterone is recorded as 2%. Further, in the test with plasma aldosterone, the “Aldosterone levels (% change at 2 h)” value is given as −61%.
For `O=[N+]([O-])c1ccccc1C1CCCn2cncc21` (stereo not shown) [Example 13, 8-(2-Nitrophenyl)-5,6,7,8-tetrahydroimidazo[1,5-a]pyridine] the same measures were 0% and −62%.
Turning to `CC1(C)CCn2cncc2C1c1ccc(C#N)cc1` (stereo not shown) [Example 16, 4-(7,7-Dimethyl-5,6,7,8-tetrahydroimidazo[1,5-a]pyridin-8-yl)benzonitrile], the “Corticosterone levels (% change at 2 h)” value in the test on plasma corticosterone was −3%. In the test with plasma aldosterone, the “Aldosterone levels (% change at 2 h)” value is recorded as −21%.
